molecular target: Mcl-1 protein (UniProtKB primary accession number: Q07820) (Homo sapiens, UniProt Q07820); assay: Inhibition of Mcl-1 by fluorescence polarisation, Method 1; format: binding; details: fluorescence polarisation; Method 1, or Method 2; read-out: IC50 (M) Mcl-1 FP
Procedure, shortened: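 An 11-point DMSO dilution of compound is mixed with buffer (10 mM HEPES, 150 mM NaCl, 0.05% Tween 20, pH 7.4) carrying 1 nM fluorescein-labelled ligand and 5 nM Mcl-1, final concentrations. Displacement is monitored by fluorescence polarisation.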

Mcl-1 protein, sequence (Q07820 whole entry): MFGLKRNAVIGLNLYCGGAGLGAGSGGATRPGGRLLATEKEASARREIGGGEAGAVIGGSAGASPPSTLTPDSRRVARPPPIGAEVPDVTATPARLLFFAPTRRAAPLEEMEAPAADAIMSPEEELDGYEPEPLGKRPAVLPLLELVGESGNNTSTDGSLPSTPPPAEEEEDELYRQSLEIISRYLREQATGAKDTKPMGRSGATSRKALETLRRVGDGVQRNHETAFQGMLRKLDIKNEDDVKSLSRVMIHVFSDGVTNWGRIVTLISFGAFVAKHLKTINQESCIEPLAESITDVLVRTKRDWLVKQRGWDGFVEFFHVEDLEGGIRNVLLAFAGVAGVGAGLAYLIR

| Compound | IC50 |
| --- | --- |
| Cc1c(-c2c(-c3ccc(F)cc3)sc3ncnc(OC(Cc4ccccc4OCC(F)(F)F)C(=O)O)c23)ccc(OCCN2CCOCC2)c1Cl [Example 657, (2R)-2-{[(5Sa)-5-{3-chloro-2-methyl-4-[2-(morpholin-4-yl)ethoxy]phenyl}-6-(4-fluorophenyl)thieno[2,3-d]pyrimidin-4-yl]oxy}-3-[2-(2,2,2-trifluoroethoxy)phenyl]propanoic acid] | 2.1e-08 M |
| COc1ccc(-c2c(-c3ccc(F)cc3)sc3ncnc(OC(Cc4ccccc4OCc4ccnc(N(C)C)n4)C(=O)O)c23)c(C)c1Cl [Example 660, (2R)-2-{[(5Sa)-5-(3-chloro-4-methoxy-2-methylphenyl)-6-(4-fluorophenyl)thieno[2,3-d]pyrimidin-4-yl]oxy}-3-(2-{[2-(dimethylamino)pyrimidin-4-yl]methoxy}phenyl)propanoic acid] | 5.1e-08 M |
| COc1ccc(-c2c(-c3ccc(F)cc3)sc3ncnc(OC(Cc4ccccc4OCCN4CCN(C)CC4)C(=O)O)c23)c(C)c1Cl [Example 661, (2R)-2-{[(5Sa)-5-(3-chloro-4-methoxy-2-methylphenyl)-6-(4-fluorophenyl)thieno[2,3-d]pyrimidin-4-yl]oxy}-3-{2-[2-(4-methylpiperazin-1-yl)ethoxy]phenyl}propanoic acid] | 1e-07 M |
| COc1ccc(-c2c(-c3ccc(F)cc3)sc3ncnc(OC(Cc4ccccc4OCc4ccnn4CCN(C)C)C(=O)O)c23)c(C)c1Cl [Example 663, (2R)-2-{[(5Sa)-5-(3-chloro-4-methoxy-2-methylphenyl)-6-(4-fluorophenyl)thieno[2,3-d]pyrimidin-4-yl]oxy}-3-[2-({1-[2-(dimethylamino)ethyl]-1H-pyrazol-5-yl}methoxy)phenyl]propanoic acid] | 2.5e-08 M |
| Cc1c(Cl)cccc1-c1c(-c2ccco2)sc2ncnc(OC(Cc3ccccc3OCCN3CCN(C)CC3)C(=O)O)c12 [Example 666, (2R)-2-{[(5Sa)-5-(3-chloro-2-methylphenyl)-6-(furan-2-yl)thieno[2,3-d]pyrimidin-4-yl]oxy}-3-{2-[2-(4-methylpiperazin-1-yl)ethoxy]phenyl}propanoic acid] | 7.7e-08 M |
| Cc1c(Cl)cccc1-c1c(-c2ccco2)sc2ncnc(OC(Cc3ccccc3OCCN3CCN(C)CC3)C(=O)O)c12 [Example 667, (2S)-2-{[(5Ra)-5-(3-chloro-2-methylphenyl)-6-(furan-2-yl)thieno[2,3-d]pyrimidin-4-yl]oxy}-3-{2-[2-(4-methylpiperazin-1-yl)ethoxy]phenyl}propanoic acid] | 2.1e-06 M |
| CC#Cc1sc2ncnc(OC(Cc3ccccc3OC)C(=O)O)c2c1-c1ccc(OCCN2CCOCC2)c(Cl)c1C [Example 685, (2R)-2-{[(5Sa)-5-{3-chloro-2-methyl-4-[2-(morpholin-4-yl)ethoxy]phenyl}-6-(prop-1-yn-1-yl)thieno[2,3-d]pyrimidin-4-yl]oxy}-3-(2-methoxyphenyl)propanoic acid] | 1.2e-08 M |
| COc1nccc(COc2ccccc2CC(Oc2ncnc3sc(-c4ccc(F)c(OCCN5CCOCC5)c4)c(-c4ccc(OC)c(Cl)c4C)c23)C(=O)O)n1 [Example 700, (2R)-2-{[(5Sa)-5-(3-chloro-4-methoxy-2-methylphenyl)-6-{4-fluoro-3-[2-(morpholin-4-yl)ethoxy]phenyl}thieno[2,3-d]pyrimidin-4-yl]oxy}-3-{2-[(2-methoxypyrimidin-4-yl)methoxy]phenyl}propanoic acid] | 1.2e-08 M |
| Cc1c(-c2c(-c3cnn(C)c3)sc3ncnc(OC(Cc4ccccc4)C(=O)O)c23)ccc(OCCN2CCOCC2)c1Cl [Example 712, (2R)-2-{[(5Sa)-5-{3-chloro-2-methyl-4-[2-(morpholin-4-yl)ethoxy]phenyl}-6-(1-methyl-1H-pyrazol-4-yl)thieno[2,3-d]pyrimidin-4-yl]oxy}-3-phenylpropanoic acid] | 4.1e-07 M |
| COc1ccccc1CC(Oc1ncnc2sc(-c3cccc(OCCN4CCN(C)CC4)c3)c(-c3ccc(OC)c(Cl)c3C)c12)C(=O)O [Example 713, (2R)-2-{[(5Sa)-5-(3-chloro-4-methoxy-2-methylphenyl)-6-{3-[2-(4-methylpiperazin-1-yl)ethoxy]phenyl}thieno[2,3-d]pyrimidin-4-yl]oxy}-3-(2-methoxyphenyl)propanoic acid] | 1.6e-08 M |
| COc1ccccc1CC(Oc1ncnc2sc(-c3ccsc3)c(-c3ccc(O)c(Cl)c3C)c12)C(=O)O [Example 715, (2R)-2-{[(5Sa)-5-(3-chloro-4-hydroxy-2-methylphenyl)-6-(thiophen-3-yl)thieno[2,3-d]pyrimidin-4-yl]oxy}-3-(2-methoxyphenyl)propanoic acid] | 1.6e-09 M |
| C=Cc1sc2ncnc(OC(Cc3ccccc3)C(=O)O)c2c1-c1cccc(Cl)c1C [Example 721, (2R)-2-{[(5Sa)-5-(3-chloro-2-methylphenyl)-6-ethenylthieno[2,3-d]pyrimidin-4-yl]oxy}-3-phenylpropanoic acid] | 7.6e-08 M |
| Cc1c(-c2c(-c3ccc(F)cc3)sc3ncnc(O[C@H](Cc4ccccc4OCc4ccnc(-c5ccccc5CO)n4)C(=O)O)c23)ccc(OCCN2CCN(C)CC2)c1Cl [Example 728, (2R)-2-{[(5Sa)-5-{3-chloro-2-methyl-4-[2-(4-methylpiperazin-1-yl)ethoxy]phenyl}-6-(4-fluorophenyl)thieno[2,3-d]pyrimidin-4-yl]oxy}-3-[2-({2-[2-(hydroxymethyl)phenyl]pyrimidin-4-yl}methoxy)phenyl]propanoic acid] | 1.18e-09 M |

Second part, the molecule after the results:

| IC50 | Compound |
| --- | --- |
| 1.4e-08 M | Cc1c(-c2c(-c3ccc(F)cc3)sc3ncnc(OC(Cc4ccccc4OCC4CCCO4)C(=O)O)c23)ccc(OCCN2CCOCC2)c1Cl [Example 648, (2R)-2-{[(5Sa)-5-{3-chloro-2-methyl-4-[2-(morpholin-4-yl)ethoxy]phenyl}-6-(4-fluorophenyl)thieno[2,3-d]pyrimidin-4-yl]oxy}-3-{2-[(2R)-tetrahydrofuran-2-ylmethoxy]phenyl}propanoic acid] |
| 2.6e-08 M | COCCCc1ccccc1CC(Oc1ncnc2sc(-c3ccc(F)cc3)c(-c3ccc(OCCN4CCN(C)CC4)c(Cl)c3C)c12)C(=O)O [Example 655, (2R)-2-{[(5Sa)-5-{3-chloro-2-methyl-4-[2-(4-methylpiperazin-1-yl)ethoxy]phenyl}-6-(4-fluorophenyl)thieno[2,3-d]pyrimidin-4-yl]oxy}-3-[2-(3-methoxypropyl)phenyl]propanoic acid] |
| 2.7e-07 M | COc1ccc(-c2c(-c3ccc(F)cc3)sc3ncnc(OC(Cc4ccccc4OCCN(C)C)C(=O)O)c23)c(C)c1Cl [Example 662, (2R)-2-{[(5Sa)-5-(3-chloro-4-methoxy-2-methylphenyl)-6-(4-fluorophenyl)thieno[2,3-d]pyrimidin-4-yl]oxy}-3-{2-[2-(dimethylamino)ethoxy]phenyl}propanoic acid] |
| 2.1e-08 M | Cc1c(-c2c(-c3ccco3)sc3ncnc(OC(Cc4ccccc4OCc4ccccn4)C(=O)O)c23)ccc(O)c1Cl [Example 674, (2R)-2-{[(5Sa)-5-(3-chloro-4-hydroxy-2-methylphenyl)-6-(furan-2-yl)thieno[2,3-d]pyrimidin-4-yl]oxy}-3-[2-(pyridin-2-ylmethoxy)phenyl]propanoic acid] |
| 1e-06 M | CC#Cc1sc2ncnc(O[C@H](Cc3ccccc3OC)C(=O)O)c2c1-c1ccc(OCCN2CCN(C)CC2)c(F)c1C [Example 686, (2R)-2-{[(5Ra)-5-{3-fluoro-2-methyl-4-[2-(4-methylpiperazin-1-yl)ethoxy]phenyl}-6-(prop-1-yn-1-yl)thieno[2,3-d]pyrimidin-4-yl]oxy}-3-(2-methoxyphenyl)propanoic acid] |
| 7.3e-09 M | COc1nccc(COc2ccccc2CC(Oc2ncnc3sc(-c4ccc(F)c(OCCN5CCN(C)CC5)c4)c(-c4ccc(OC)c(Cl)c4C)c23)C(=O)O)n1 [Example 698, (2R)-2-{[(5Sa)-5-(3-chloro-4-methoxy-2-methylphenyl)-6-{4-fluoro-3-[2-(4-methylpiperazin-1-yl)ethoxy]phenyl}thieno[2,3-d]pyrimidin-4-yl]oxy}-3-{2-[(2-methoxypyrimidin-4-yl)methoxy]phenyl}propanoic acid] |
| 9.4e-09 M | COc1nccc(COc2ccccc2CC(Oc2ncnc3sc(-c4ccc(F)c(OCCN(C)C)c4)c(-c4ccc(OC)c(Cl)c4C)c23)C(=O)O)n1 [Example 702, (2R)-2-{[(5Sa)-5-(3-chloro-4-methoxy-2-methylphenyl)-6-{3-[2-(dimethylamino)ethoxy]-4-fluorophenyl}thieno[2,3-d]pyrimidin-4-yl]oxy}-3-{2-[(2-methoxypyrimidin-4-yl)methoxy]phenyl}propanoic acid] |

same assay, conditions: partial inhibitors; @ 1 uM test compound

| Compound | percentage fluorescence polarisation inhibition, Mcl-1 FP |
| --- | --- |
| COc1nccc(COc2ccccc2C[C@@H](Oc2ncnc3sc(-c4ccc(F)c(OCCN5CCN(C)CC5)c4)c(-c4ccc(OC)c(Cl)c4C)c23)C(=O)O)n1 [Example 697, (2R)-2-{[(5Ra)-5-(3-chloro-4-methoxy-2-methylphenyl)-6-{4-fluoro-3-[2-(4-methylpiperazin-1-yl)ethoxy]phenyl}thieno[2,3-d]pyrimidin-4-yl]oxy}-3-{2-[(2-methoxypyrimidin-4-yl)methoxy]phenyl}propanoic acid] | 45.55% @ 1 uM |
| COc1nccc(COc2ccccc2C[C@@H](Oc2ncnc3sc(-c4ccc(F)c(OCCN5CCOCC5)c4)c(-c4ccc(OC)c(Cl)c4C)c23)C(=O)O)n1 [Example 699, (2R)-2-{[(5Ra)-5-(3-chloro-4-methoxy-2-methylphenyl)-6-{4-fluoro-3-[2-(morpholin-4-yl)ethoxy]phenyl}thieno[2,3-d]pyrimidin-4-yl]oxy}-3-{2-[(2-methoxypyrimidin-4-yl)methoxy]phenyl}propanoic acid] | 28.5% @ 1 uM |
| COc1nccc(COc2ccccc2C[C@@H](Oc2ncnc3sc(-c4ccc(F)c(OCCN(C)C)c4)c(-c4ccc(OC)c(Cl)c4C)c23)C(=O)O)n1 [Example 701, (2R)-2-{[(5Ra)-5-(3-chloro-4-methoxy-2-methylphenyl)-6-{3-[2-(dimethylamino)ethoxy]-4-fluorophenyl}thieno[2,3-d]pyrimidin-4-yl]oxy}-3-{2-[(2-methoxypyrimidin-4-yl)methoxy]phenyl}propanoic acid] | 40.75% @ 1 uM |

— patent US9670227B2, “Thienopyrimidine derivatives, a process for their preparation and pharmaceutical compositions containing them” (LES LABORATOIRES SERVIER, priority 2013, dated 2017)
